Laboratory results: patent US12404295B2, “(Hetero)aryl-methyl-thio-beta-D-galactopyranoside derivatives” (Idorsia Pharmaceuticals Ltd, priority 2019, dated 2025)

Assays:
human Gal-1 (hGal-1) = human Gal-1 (hGal-1) (Homo sapiens (Human), UniProt P09382); assay: competitive binding assay: biotinylated hGal-1 binding to microplate-adsorbed asialofetuin (ASF); conditions: Table 15; read-out: IC50 (Galectin-1 inhibition)
Method in brief: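 Spectrophotometric competition readout: after compound and biotinylated hGal-1 (300-1000 ng/mL) sit 3 h at 4° C on adsorbed asialofetuin, streptavidin-peroxidase (1 h, 4° C) and ABTS reveal residual binding. Reported IC50 values are means of repeat runs.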

human Gal-3 (hGal-3) = human Gal-3 (hGal-3) (Homo sapiens (Human), UniProt P17931); assay: competitive binding assay: biotinylated hGal-3 binding to microplate-adsorbed asialofetuin (ASF); conditions: Table 5; read-out: IC50 (Gal-3 inhibition)
human Gal-3 (hGal-3), sequence (P17931 whole entry): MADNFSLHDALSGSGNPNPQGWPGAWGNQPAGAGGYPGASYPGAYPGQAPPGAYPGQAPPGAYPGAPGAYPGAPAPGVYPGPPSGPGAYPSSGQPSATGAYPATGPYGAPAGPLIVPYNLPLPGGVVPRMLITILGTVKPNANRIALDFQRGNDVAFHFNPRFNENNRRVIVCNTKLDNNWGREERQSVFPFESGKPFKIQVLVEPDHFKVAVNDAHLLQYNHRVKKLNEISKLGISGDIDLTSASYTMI
Method in brief: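 3 h, 4 °C binding step; cold buffer wash; streptavidin-HRP 80 ng/mL, 1 h, 4 °C; ABTS colorimetric read-out. Compounds diluted serially in DMSO. IC50 reported as mean of repeat runs.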

human Gal-1 (hGal-1), sequence (P09382 whole entry): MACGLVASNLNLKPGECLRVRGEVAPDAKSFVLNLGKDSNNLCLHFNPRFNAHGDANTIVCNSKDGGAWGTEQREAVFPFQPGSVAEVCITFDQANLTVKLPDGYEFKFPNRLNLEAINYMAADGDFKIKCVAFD

| IC50 (human Gal-1 (hGal-1)) | IC50 (human Gal-3 (hGal-3)) | Substance |
| --- | --- | --- |
| 1.9 µM | 0.12 µM | (2S,3R,4S,5R,6R)-2-(((4-Hydroxy-2,2-dimethyltetrahydro-2H-pyran-4-yl)(2-(trifluoromethyl)phenyl)methyl)thio)-6-(hydroxymethyl)-4-(4-(3,4,5-trifluorophenyl)-1H-1,2,3-triazol-1-yl)tetrahydro-2H-pyran-3,5-diol [Example 2.43.102.] |
| 1.73 µM | 0.8 µM | (2S,3R,4S,5R,6R)-2-(((R)-(2,3-Dichlorophenyl)(4,4-difluoro-1-hydroxycyclohexyl)methyl)thio)-6-(hydroxymethyl)-4-(4-(3,4,5-trifluorophenyl)-1H-1,2,3-triazol-1-yl)tetrahydro-2H-pyran-3,5-diol [Example 2.44.113R.] |
| 0.02 µM | 0.06 µM | (2S,3R,4S,5R,6R)-2-(((R)-(2-Cyclopropylphenyl)(4,4-difluoro-1-hydroxycyclohexyl)methyl)thio)-6-(hydroxymethyl)-4-(4-(3,4,5-trifluorophenyl)-1H-1,2,3-triazol-1-yl)tetrahydro-2H-pyran-3,5-diol [Example 2.44.106R.] |
| 0.81 µM | 0.1 µM | (2S,3R,4S,5R,6R)-2-(((R)-(3,3-Difluoro-1-hydroxycyclobutyl)(3-(trifluoromethyl)pyridin-2-yl)methyl)thio)-6-(hydroxymethyl)-4-(4-(3,4,5-trifluorophenyl)-1H-1,2,3-triazol-1-yl)tetrahydro-2H-pyran-3,5-diol [Example 2.35.125R.] |
| 6.4 µM | 0.09 µM | (2S,3R,4S,5R,6R)-2-(((R)-(4-Hydroxy-2,2,6,6-tetramethyltetrahydro-2H-pyran-4-yl)(2-(trifluoromethyl)phenyl)methyl)thio)-6-(hydroxymethyl)-4-(4-(3,4,5-trifluorophenyl)-1H-1,2,3-triazol-1-yl)tetrahydro-2H-pyran-3,5-diol [Example 2.42.102R.] |
| 8.8 µM | 0.29 µM | (2S,3R,4S,5R,6R)-2-(((R)-((R)-4-Hydroxy-2,2-dimethyltetrahydro-2H-pyran-4-yl)(2-(trifluoromethyl)phenyl)methyl)thio)-6-(hydroxymethyl)-4-(4-(3,4,5-trifluorophenyl)-1H-1,2,3-triazol-1-yl)tetrahydro-2H-pyran-3,5-diol [Example 2.43.102RR.] |
| 6.8 µM | 1.5 µM | (2S,3R,4S,5R,6R)-2-(((R)-((R)-4-Hydroxy-2,2-dimethyltetrahydro-2H-pyran-4-yl)(o-tolyl)methyl)thio)-6-(hydroxymethyl)-4-(4-(3,4,5-trifluorophenyl)-1H-1,2,3-triazol-1-yl)tetrahydro-2H-pyran-3,5-diol [Example 2.43.112RR.] |
| 0.8 µM | 0.04 µM | (2S,3R,4S,5R,6R)-2-(((R)-((S)-4-Hydroxy-2,2-dimethyltetrahydro-2H-pyran-4-yl)(2-(trifluoromethyl)phenyl)methyl)thio)-6-(hydroxymethyl)-4-(4-(3,4,5-trifluorophenyl)-1H-1,2,3-triazol-1-yl)tetrahydro-2H-pyran-3,5-diol [Example 2.43.102RS.] |
| 0.4 µM | 0.13 µM | (2S,3R,4S,5R,6R)-2-(((R)-((S)-4-Hydroxy-2,2-dimethyltetrahydro-2H-pyran-4-yl)(o-tolyl)methyl)thio)-6-(hydroxymethyl)-4-(4-(3,4,5-trifluorophenyl)-1H-1,2,3-triazol-1-yl)tetrahydro-2H-pyran-3,5-diol [Example 2.43.112RS.] |
| 70 µM | 14.8 µM | (2S,3R,4S,5R,6R)-2-(((S)-(1-Hydroxycyclohexyl)(4-methylisoxazol-3-yl)methyl)thio)-6-(hydroxymethyl)-4-(4-(3,4,5-trifluorophenyl)-1H-1,2,3-triazol-1-yl)tetrahydro-2H-pyran-3,5-diol [Example 2.39.120S.] |
| 56.8 µM | 57.5 µM | (2S,3R,4S,5R,6R)-2-(((S)-(2,3-Dichlorophenyl)(4,4-difluoro-1-hydroxycyclohexyl)methyl)thio)-6-(hydroxymethyl)-4-(4-(3,4,5-trifluorophenyl)-1H-1,2,3-triazol-1-yl)tetrahydro-2H-pyran-3,5-diol [Example 2.44.113S.] |
| 1.9 µM | 0.93 µM | (2S,3R,4S,5R,6R)-2-(((S)-(2-Cyclopropylphenyl)(4,4-difluoro-1-hydroxycyclohexyl)methyl)thio)-6-(hydroxymethyl)-4-(4-(3,4,5-trifluorophenyl)-1H-1,2,3-triazol-1-yl)tetrahydro-2H-pyran-3,5-diol [Example 2.44.106S.] |
| 21.8 µM | 3 µM | (2S,3R,4S,5R,6R)-2-(((S)-(3,3-Difluoro-1-hydroxycyclobutyl)(3-(trifluoromethyl)pyridin-2-yl)methyl)thio)-6-(hydroxymethyl)-4-(4-(3,4,5-trifluorophenyl)-1H-1,2,3-triazol-1-yl)tetrahydro-2H-pyran-3,5-diol [Example 2.35.125S.] |
| 17.6 µM | 19.5 µM | (2S,3R,4S,5R,6R)-2-(((S)-(4,4-Difluoro-1-hydroxycyclohexyl)(2-(trifluoromethyl)phenyl)methyl)thio)-6-(hydroxymethyl)-4-(4-(3,4,5-trifluorophenyl)-1H-1,2,3-triazol-1-yl)tetrahydro-2H-pyran-3,5-diol [Example 2.44.112S.] |
| > 100 µM | 7.82 µM | (2S,3R,4S,5R,6R)-2-(((S)-(4-Hydroxy-2,2,6,6-tetramethyltetrahydro-2H-pyran-4-yl)(2-(trifluoromethyl)phenyl)methyl)thio)-6-(hydroxymethyl)-4-(4-(3,4,5-trifluorophenyl)-1H-1,2,3-triazol-1-yl)tetrahydro-2H-pyran-3,5-diol [Example 2.42.102S.] |
| 55 µM | 3.9 µM | (2S,3R,4S,5R,6R)-2-(((S)-((R)-4-Hydroxy-2,2-dimethyltetrahydro-2H-pyran-4-yl)(2-(trifluoromethyl)phenyl)methyl)thio)-6-(hydroxymethyl)-4-(4-(3,4,5-trifluorophenyl)-1H-1,2,3-triazol-1-yl)tetrahydro-2H-pyran-3,5-diol [Example 2.43.102SR.] |
| 10.9 µM | 4.9 µM | (2S,3R,4S,5R,6R)-2-(((S)-((R)-4-Hydroxy-2,2-dimethyltetrahydro-2H-pyran-4-yl)(o-tolyl)methyl)thio)-6-(hydroxymethyl)-4-(4-(3,4,5-trifluorophenyl)-1H-1,2,3-triazol-1-yl)tetrahydro-2H-pyran-3,5-diol [Example 2.43.112SR.] |
| 69.5 µM | 3.92 µM | (2S,3R,4S,5R,6R)-2-(((S)-((S)-4-Hydroxy-2,2-dimethyltetrahydro-2H-pyran-4-yl)(2-(trifluoromethyl)phenyl)methyl)thio)-6-(hydroxymethyl)-4-(4-(3,4,5-trifluorophenyl)-1H-1,2,3-triazol-1-yl)tetrahydro-2H-pyran-3,5-diol [Example 2.43.102SS.] |
| 19.4 µM | 7.3 µM | (2S,3R,4S,5R,6R)-2-(((S)-((S)-4-Hydroxy-2,2-dimethyltetrahydro-2H-pyran-4-yl)(o-tolyl)methyl)thio)-6-(hydroxymethyl)-4-(4-(3,4,5-trifluorophenyl)-1H-1,2,3-triazol-1-yl)tetrahydro-2H-pyran-3,5-diol [Example 2.43.112SS.] |
